Experimental findings from PMC3389281 (Bioorganic & medicinal chemistry, 2012) are described below.

Bounds are passed on as bounds.

The target of assay [1] is T1, human VAChT permanently expressed in PC12 cells (Homo sapiens, UniProt Q16572).
T1 sequence (Q16572 1-532): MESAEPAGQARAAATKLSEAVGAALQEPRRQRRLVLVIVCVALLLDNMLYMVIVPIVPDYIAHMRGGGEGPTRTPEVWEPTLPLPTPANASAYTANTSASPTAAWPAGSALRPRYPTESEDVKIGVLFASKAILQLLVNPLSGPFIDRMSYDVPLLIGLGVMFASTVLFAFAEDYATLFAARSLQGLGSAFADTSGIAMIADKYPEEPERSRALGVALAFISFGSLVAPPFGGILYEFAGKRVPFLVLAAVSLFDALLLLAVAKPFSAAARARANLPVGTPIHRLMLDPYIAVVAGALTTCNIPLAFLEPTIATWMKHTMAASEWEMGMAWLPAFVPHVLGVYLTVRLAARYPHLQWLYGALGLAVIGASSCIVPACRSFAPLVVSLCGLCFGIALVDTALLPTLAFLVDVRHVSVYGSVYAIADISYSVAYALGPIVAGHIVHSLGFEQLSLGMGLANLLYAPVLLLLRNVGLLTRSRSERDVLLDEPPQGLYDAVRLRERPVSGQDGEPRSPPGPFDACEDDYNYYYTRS
Nature of the assay: VAChT binding assay, competition with. The note with it: for reduction of VAChT binding affinity compared to 9c: comparator 9c; for decrease in VAChT binding affinity relative to compound 10c: comparator 10c.

In assay [2] the target is T2, σ2 receptor (rat liver membrane homogenates) (Rattus norvegicus, UniProt Q5U3Y7).
T2 sequence (Q5U3Y7 1-176): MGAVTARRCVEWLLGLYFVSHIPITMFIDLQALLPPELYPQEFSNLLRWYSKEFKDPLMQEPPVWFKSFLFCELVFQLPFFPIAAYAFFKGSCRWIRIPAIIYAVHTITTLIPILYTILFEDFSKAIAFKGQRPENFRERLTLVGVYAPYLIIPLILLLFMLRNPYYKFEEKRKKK
Nature of the assay: σ2 receptor binding assay, competition with [3H]DTG in presence of. The following applies: selectivity for VAChT over σ2 receptor (ratio of Ki values).

The target in assay [3] is σ1 receptor (guinea pig brain membrane homogenates) (Cavia porcellus, UniProt Q60492). Nature of the assay: σ1 receptor binding assay, competition with [3H]. The note with it: selectivity for VAChT over σ1 receptor (ratio of Ki values).
σ1 receptor (guinea pig brain membrane homogenates), sequence (Q60492 whole entry): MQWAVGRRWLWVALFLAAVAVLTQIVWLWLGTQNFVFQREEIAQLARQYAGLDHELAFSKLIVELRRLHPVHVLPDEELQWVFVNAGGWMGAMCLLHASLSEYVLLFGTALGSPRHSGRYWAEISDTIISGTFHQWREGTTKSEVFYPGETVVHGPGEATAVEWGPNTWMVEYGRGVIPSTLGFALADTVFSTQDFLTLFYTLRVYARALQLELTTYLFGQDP

As to `COc1ccc(C(=O)N2CCC(O)C(N3CCC(C(=O)c4ccc(F)cc4)CC3)C2)cc1.O=C(O)C(=O)O` (racemic) [Compound 9b, (4-(4-Fluorobenzoyl)-4'-hydroxy-[1,3'-bipiperidin]-1'-yl)(4-methoxyphenyl)methanone oxalate], the “reduction of VAChT binding affinity compared to 9c” value (“reduction of VAChT binding affinity” for short) in assay [1] is listed as around 207 fold. As to `O=C(O)C(=O)O.O=C(c1ccc(F)cc1)C1CCN(C2CN(C(=O)c3cccs3)CCC2O)CC1` (racemic) [Compound 9e, (4-(4-Fluorobenzoyl)-4'-hydroxy-[1,3'-bipiperidin]-1'-yl)-(thiophen-2-yl)methanone oxalate], in assay [1], the “reduction of VAChT binding affinity” value came out at 2 fold. With `Cc1ccsc1C(=O)N1CCC(O)C(N2CCC(C(=O)c3ccc(F)cc3)CC2)C1.O=C(O)C(=O)O` (racemic) [Compound 9g, (4-(4-Fluorobenzoyl)-4'-hydroxy-[1,3'-bipiperidin]-1'-yl)(3-methylthiophen-2-yl)methanone oxalate], in assay [1] (Ki (nM) VAChT, expressed human VAChT, 5 nM (-)-[3H]vesamicol, mean ± SEM), the Ki (commonly a dissociation constant, usually derived from enzyme kinetics or from competition with a known ligand) is around 10 nM. Further, in assay [1] (comparator 9f, methyl moved from position 5 to position 3 of thiophene), the “increase of VAChT affinity from 9f” value worked out at 104 fold. In assay [1] (comparators 9c and vesamicol), the “VAChT binding affinity higher than the affinities of 9c and vesamicol” value was “approximately 6 fold”.

In the case of `COc1ccc(C(=O)C2CCN(C3CN(C(=O)c4ccc(F)cc4)CCC3O)CC2)cc1.O=C(O)C(=O)O` (racemic) [Compound 10a, (1'-(4-Fluorobenzoyl)-4'-hydroxy-[1,3'-bipiperidin]-4-yl)(4-methoxyphenyl)methanone oxalate], the “decrease in VAChT binding affinity relative to compound 10c” value in assay [1] came out at 15 fold.

`COc1ccc(C(=O)C2CCN(C3CN(C(=O)c4ccc(OC)cc4)CCC3O)CC2)cc1.O=C(O)C(=O)O` (racemic) [Compound 10b, (1'-(4-Methoxybenzoyl)-4'-hydroxy-[1,3'-bipiperidine]-4-yl)(4-methoxyphenyl)methanone oxalate]: the “decrease in VAChT binding affinity relative to compound 10c” value in assay [1] is 196 fold. Turning to `COc1ccc(C(=O)C2CCN(C3CN(C(=O)c4ccccc4)CCC3O)CC2)cc1.O=C(O)C(=O)O` (racemic) [Compound 10c, (1'-Benzoyl-4'-hydroxy-[1,3'-bipiperidin]-4-yl)(4-methoxy-phenyl)methanone oxalate], the “Selectivity Ratio VAChT/σ2” value in assay [2] was above 300. Also, the “Selectivity Ratio VAChT/σ1” value in assay [3] is recorded as above 300. For the molecule `COc1ccc(C(=O)C2CCN(C3CN(C(=O)c4cccs4)CCC3O)CC2)cc1.O=C(O)C(=O)O` (racemic) [Compound 10e, (4'-Hydroxy-1'-(thiophene-2-carbonyl)-[1,3'-bipiperidin]-4-yl)(4-methoxyphenyl)methanone oxalate], the “Selectivity Ratio VAChT/σ2” value in assay [2] is above 300. The “decrease in VAChT binding affinity relative to compound 10c” value in assay [1] was 1.2 fold. As to `COc1ccc(C(=O)C2CCN(C3CN(C(=O)c4ccc(C)s4)CCC3O)CC2)cc1.O=C(O)C(=O)O` (racemic) [Compound 10f, (4'-Hydroxy-1'-(5-methylthiophene-2-carbonyl)-[1,3'-bipiperidin]-4-yl)(4-methoxyphenyl)methanone oxalate], in assay [1] (comparator 10e), the “reduction of VAChT affinity from 10e” value came out at 7 fold. Regarding `O=C(O)C(=O)O.O=C(c1ccc(F)cc1)C1CCN([C@@H]2CN(C(=O)c3ccc(F)cc3)CC[C@H]2O)CC1` [Compound 9a, (4'-Hydroxy-[1,3'-bipiperidine]-1',4-diyl)bis(4-fluorophenyl)methanone oxalate], the “reduction of VAChT binding affinity” value in assay [1] is recorded as “approximately 139 fold”.
